# Test results as given in publication PMC12775434, “Ultra-large virtual screening unveils potent agonists of the neuromodulatory orphan receptor GPR139” (Nature Communications, 2025).
# “And” between values parts separate entries of the source, which are not always exact repeats. Equal entries are not always repeated.
# Key:
# Assay type in all cases: cell-based
# GPR139 (Gi2 activation) = molecular target: T1, GPR139 (Gi2 activation) (Homo sapiens, UniProt Q6DWJ6); test: BRET G protein activation (dissociation) assay, Gi2, HEK293A; settings: for G protein activation, Gi2: individual replicates
# T1 construct: expressed in transfected cells; host or cells: HEK293A (transient, Lipofectamine 2000)
# T1 sequence (Q6DWJ6 1-353): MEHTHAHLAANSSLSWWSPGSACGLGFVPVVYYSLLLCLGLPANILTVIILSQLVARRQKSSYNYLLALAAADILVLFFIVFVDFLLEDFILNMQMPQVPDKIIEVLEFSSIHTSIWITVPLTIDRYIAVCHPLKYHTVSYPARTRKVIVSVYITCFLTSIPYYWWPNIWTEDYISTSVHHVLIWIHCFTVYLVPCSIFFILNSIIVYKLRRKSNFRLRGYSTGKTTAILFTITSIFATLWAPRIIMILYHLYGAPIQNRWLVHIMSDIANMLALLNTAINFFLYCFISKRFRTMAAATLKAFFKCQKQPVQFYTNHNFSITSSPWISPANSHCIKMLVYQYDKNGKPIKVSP
# Experimental: (§1) Primary screening and pharmacological characterization of compounds were performed using a CHO-K1 cell line that stably expresses human GPR139 (GPR139-CHOk1). The GPR139-CHOk1 cell line was kindly provided by H. Lundbeck A/S, Denmark[24]. GPR139-CHOk1 cells were grown in Ham’s F-12 Kaighn’s Modification Medium (ThermoFisher #21127030) supplemented with 10% dialyzed fetal bovine serum (US origin, ThermoFisher #26400044), 100 units/mL Penicillin-Streptomycin (ThermoFisher #15140122), and 1 mg/mL Geneticin (ThermoFisher #11811031). […] M1R-CHOk1 cells were purchased from The Missouri S&T cDNA Resource Center (#CEM100TN00). M1R-CHOk1 cells were grown in Ham’s F12 Medium (ThermoFisher #21765029) supplemented with 10% fetal bovine serum (Brazilian origin, ThermoFisher #10270106), 100 units/mL Penicillin-Streptomycin, and 0.25 mg/mL Geneticin. HEK293A cells transiently transfected with GPR139 were used for additional pharmacological assessment of signaling pathways activated by GPR139. HEK239A cells were generously provided by Dr. Asuka Inoue, Tohoku University, Japan. HEK293A cells were grown in Dulbecco’s Modified Eagle Medium (ThermoFisher #31966047) supplemented with 10% dialyzed fetal bovine serum and 100 units/mL Penicillin-Streptomycin. Cell lines were maintained at 37 °C in humidified incubator equilibrated with 5% CO2.
# (§2) The G protein dissociation assay developed by the lab of Kirill A. Martemyanov was used to measure the coupling of multiple G proteins by GPR139[57]. The assay was performed as described previously with minor modifications. HEK293A cells were reverse transfected 20–24 h prior to assay. 50,000 cells were plated in each well of white opaque tissue culture treated 96-well plates (PerkinElmer #6005680) previously coated with poly-D-lysine. Transfection solutions were prepared as described, and 10 µL transfection solution was mixed with 100 µL cells in each well. The cells in each well were transfected with 18.9 ng GPR139, 6.3 ng Venus 1-155 Gγ2, 6.3 ng Venus 159-239 Gβ1, 6.3 ng masGRK3ct-NanoLuc and 12.6 ng Gαi2, 12.6 ng Gαi3, 12.6 ng GαoA, 12.6 ng Gαq or 25.2 ng Gα12 using 375 nL Lipofectamine 2000 Transfection Reagent. Transfections with Gαq and Gα12 contained 6.3 ng DNA of the active subunit S1 of pertussis toxin (PTX-S1). Each transfection was normalized to 150 ng total DNA with pcDNA3.1. The BRET biosensors were a kind gift from the Martemyanov lab. On the day of the experiment the cells were washed with HEPES buffer. Test compounds were diluted in HEPES buffer from DMSO stocks (final DMSO concentration of maximally 0.3%). NanoLuc Luciferase substrate NanoGlo—furimazine (Promega #N1120) was diluted 1000-fold (final) in HEPES buffer. NanoGlo and test compounds were added, and measurements were performed after 10 s for Gi3, 15 s for Gi2 and GoA, 20 s for Gq, and 90 s for G12—the timepoint where maximal signal occurred with each G protein, ensuring proper determination of the potency for the G protein coupling. Simultaneous dual emission was measured at 535 nm and 475 nm on LUMIstar Omega Microplate Reader (BMG Labtech) at room temperature. The BRET ratio of 535 nm/475 nm (Venus/NanoLuc), reflecting the dissociation of the G protein heterotrimer, was used to determine the G protein activation. The basal BRET ratio obtained with buffer condition was subtracted from the absolute BRET ratio at a given test compound concentration, and the responses were normalized to the one obtained with 10 µM JNJ-63533054 for the activation of Gi2.
# (§3) Pharmacological data and statistical analyses were performed in GraphPad Prism v9–10 (Graphpad Software Inc., San Diego, CA), which are also specifically described in the figure and table legends. […]
# GPR139 (Gq activation) = molecular target: T2, GPR139 (Gq activation) (Homo sapiens, UniProt Q6DWJ6); test: BRET G protein activation (dissociation) assay, Gq, HEK293A; settings: for G protein activation, Gq: individual replicates
# T2 construct: expressed in transfected cells; host or cells: HEK293A (transient, Lipofectamine 2000)
# T2 sequence (Q6DWJ6 1-353): T1 sequence (Q6DWJ6 1-353)
# Experimental: as §1, §2, §3
# GPR139 (G12 activation) = molecular target: T3, GPR139 (G12 activation) (Homo sapiens, UniProt Q6DWJ6); test: BRET G protein activation (dissociation) assay, G12, HEK293A; settings: for G protein activation, G12: individual replicates
# T3 construct: expressed in transfected cells; host or cells: HEK293A (transient, Lipofectamine 2000)
# T3 sequence (Q6DWJ6 1-353): T1 sequence (Q6DWJ6 1-353)
# Experimental: as §1, §2, §3
# [1] = HEK293-A, normalized to JNJ-63533054 (JNJ(S))
smiles,measurement,setting,value
Cc1cscc1-c1nc(CC(=O)N[C@@H](C)c2ccccc2)no1 [1.1(S)],Emax,GPR139 (Gi2 activation); [1],95 ± 5%
same,EC50,"GPR139 (Gi2 activation); Supplementary Table 6, read-out: pEC50 Gi2 (converted)",0.0501 µM
same,"G protein activation, Gi2",GPR139 (Gi2 activation); log [compound] M -4.5,94 % of JNJ-63533054 at Gi2 (2×) and 104 % of JNJ-63533054 at Gi2
same,"G protein activation, Gi2",GPR139 (Gi2 activation); log [compound] M -5.0,90 % of JNJ-63533054 at Gi2 (2×) and 104 % of JNJ-63533054 at Gi2
same,"G protein activation, Gi2",GPR139 (Gi2 activation); log [compound] M -5.5,86 % of JNJ-63533054 at Gi2 and 80 % of JNJ-63533054 at Gi2 and 99 % of JNJ-63533054 at Gi2
same,"G protein activation, Gi2",GPR139 (Gi2 activation); log [compound] M -6.0,86 % of JNJ-63533054 at Gi2 and 80 % of JNJ-63533054 at Gi2 and 99 % of JNJ-63533054 at Gi2
same,"G protein activation, Gi2",GPR139 (Gi2 activation); log [compound] M -6.5,82 % of JNJ-63533054 at Gi2 and 74 % of JNJ-63533054 at Gi2 and 89 % of JNJ-63533054 at Gi2
same,"G protein activation, Gi2",GPR139 (Gi2 activation); log [compound] M -7.0,63 % of JNJ-63533054 at Gi2 and 57 % of JNJ-63533054 at Gi2 and 72 % of JNJ-63533054 at Gi2
same,"G protein activation, Gi2",GPR139 (Gi2 activation); log [compound] M -7.5,36 % of JNJ-63533054 at Gi2 and 35 % of JNJ-63533054 at Gi2 and 49 % of JNJ-63533054 at Gi2
same,"G protein activation, Gi2",GPR139 (Gi2 activation); log [compound] M -8.0,14 % of JNJ-63533054 at Gi2 and 11 % of JNJ-63533054 at Gi2 and 32 % of JNJ-63533054 at Gi2
same,Emax,GPR139 (Gq activation); [1],35 ± 3%
same,EC50,GPR139 (Gq activation); Supplementary Table 6,0.2 µM
same,"G protein activation, Gq",GPR139 (Gq activation); log [compound] M -4.5,35 % of JNJ-63533054 at Gi2 and 45 % of JNJ-63533054 at Gi2 and 30 % of JNJ-63533054 at Gi2
same,"G protein activation, Gq",GPR139 (Gq activation); log [compound] M -5.0,36 % of JNJ-63533054 at Gi2 and 38 % of JNJ-63533054 at Gi2 and 28 % of JNJ-63533054 at Gi2
same,"G protein activation, Gq",GPR139 (Gq activation); log [compound] M -5.5,32 % of JNJ-63533054 at Gi2 and 38 % of JNJ-63533054 at Gi2 and 27 % of JNJ-63533054 at Gi2
same,"G protein activation, Gq",GPR139 (Gq activation); log [compound] M -6.0,30 % of JNJ-63533054 at Gi2 and 34 % of JNJ-63533054 at Gi2 and 26 % of JNJ-63533054 at Gi2
same,"G protein activation, Gq",GPR139 (Gq activation); log [compound] M -6.5,21 % of JNJ-63533054 at Gi2 and 30 % of JNJ-63533054 at Gi2 and 16 % of JNJ-63533054 at Gi2
same,"G protein activation, Gq",GPR139 (Gq activation); log [compound] M -7.0,11 % of JNJ-63533054 at Gi2 and 15 % of JNJ-63533054 at Gi2 and 8 % of JNJ-63533054 at Gi2
same,"G protein activation, Gq",GPR139 (Gq activation); log [compound] M -7.5,2.21 % of JNJ-63533054 at Gi2 and 3.62 % of JNJ-63533054 at Gi2 and 4 % of JNJ-63533054 at Gi2
same,"G protein activation, Gq",GPR139 (Gq activation); log [compound] M -8.0,-2.13 % of JNJ-63533054 at Gi2 and -0.806 % of JNJ-63533054 at Gi2 and 3.47 % of JNJ-63533054 at Gi2
same,Emax,GPR139 (G12 activation); [1],54 ± 3%
same,EC50,"GPR139 (G12 activation); Supplementary Table 6, read-out: pEC50 G12 (converted)",0.0126 µM
same,"G protein activation, G12",GPR139 (G12 activation); log [compound] M -4.5,60 % of JNJ-63533054 at Gi2 (2×) and 52 % of JNJ-63533054 at Gi2
same,"G protein activation, G12",GPR139 (G12 activation); log [compound] M -5.0,54 % of JNJ-63533054 at Gi2 and 46 % of JNJ-63533054 at Gi2 and 58 % of JNJ-63533054 at Gi2
same,"G protein activation, G12",GPR139 (G12 activation); log [compound] M -5.5,51 % of JNJ-63533054 at Gi2 and 44 % of JNJ-63533054 at Gi2 and 56 % of JNJ-63533054 at Gi2
same,"G protein activation, G12",GPR139 (G12 activation); log [compound] M -6.0,52 % of JNJ-63533054 at Gi2 and 45 % of JNJ-63533054 at Gi2 and 55 % of JNJ-63533054 at Gi2
same,"G protein activation, G12",GPR139 (G12 activation); log [compound] M -6.5,47 % of JNJ-63533054 at Gi2 and 43 % of JNJ-63533054 at Gi2 and 53 % of JNJ-63533054 at Gi2
same,"G protein activation, G12",GPR139 (G12 activation); log [compound] M -7.0,46 % of JNJ-63533054 at Gi2 and 39 % of JNJ-63533054 at Gi2 and 52 % of JNJ-63533054 at Gi2
same,"G protein activation, G12",GPR139 (G12 activation); log [compound] M -7.5,36 % of JNJ-63533054 at Gi2 and 32 % of JNJ-63533054 at Gi2 and 42 % of JNJ-63533054 at Gi2
same,"G protein activation, G12",GPR139 (G12 activation); log [compound] M -8.0,22 % of JNJ-63533054 at Gi2 and 19 % of JNJ-63533054 at Gi2 and 27 % of JNJ-63533054 at Gi2
